21 molecules from ChEMBL document CHEMBL4808221, “Design and Synthesis of Novel c-di-GMP G-Quadruplex Inducers as Bacterial Biofilm Inhibitors” (J Med Chem, 2021) can be followed below.

Activity calls are given as the source filed them. No cut-off for these calls is given here. Bounds are passed on as bounds.

Assay [1] relates to c-di-GMP G-quadruplex. The assay can be described thus: Induction of c-di-GMP G-quadruplex formation in Pseudomonas aeruginosa PAO1 harboring wspF gene mutation assessed as inhibition of biofilm formation at 1.25 uM incubated for 20 hrs by crystal violet staining assay relative to control. The assay is classed as nucleic-acid assay.
Assay [2] has as its system Quadruplex DNA. In words: Induction of c-di-GMP G-quadruplex formation (unknown origin) measured at 300 nanometer by CD spectroscopy. The assay is classed as nucleic-acid assay.
The test system of assay [3] is Pseudomonas aeruginosa. The assay can be described thus: Antibacterial activity against Pseudomonas aeruginosa PAO1 harboring wspF gene mutation assessed as reduction in bacterial growth at 512 uM by crystal violet staining assay relative to control. In kind it is functional, organism-based.
For assay [4], the system named is c-di-GMP G-quadruplex. In words: Induction of c-di-GMP G-quadruplex formation in Pseudomonas aeruginosa PAO1 harboring wspF gene mutation assessed as inhibition of biofilm formation incubated for 20 hrs by crystal violet staining assay relative to control. In kind it is nucleic-acid assay.

`C[n+]1c(/C=C/c2ccc(O)cc2)sc2ccccc21`: in assay [1], the inhibition stood at 10.5%. In addition, in assay [2], the result was Active. Besides, the outcome in assay [3] was inactive. In addition, in assay [4], the IC50 was above 100 µM.
The like results for `C[n+]1c(/C=C/c2cc[nH]c2)sc2ccccc21` were, in that order, 17.7%, “Active”, “inactive” and 7.84 µM.
The like results for `C[n+]1c(/C=C/c2ccc(O)cc2)ccc2ccccc21` were, in that order, 13.4%, “Active”, “inactive” and above 100 µM.
As for `C[n+]1c(/C=C/c2ccc([N+](=O)[O-])cc2)sc2ccccc21`, the outcome in assay [3] was inactive. For the same molecule, the IC50 in assay [4] is above 100 µM.
With `C[n+]1c(/C=C/c2ccc(N3CCOCC3)cc2)ccc2ccccc21`, in assay [1], the inhibition was found to be 1.18%. Further, the outcome in assay [2] and in assay [3] was inactive. In addition, the IC50 in assay [4] was above 100 µM.
Turning to `CN1CCN(c2ccc(/C=C/c3ccc4ccccc4[n+]3C)cc2)CC1`, the inhibition in assay [1] was -2.34%. Besides, the outcome in assay [2] and in assay [3] was inactive. The IC50 in assay [4] is above 100 µM.
For the molecule `C[n+]1c(/C=C/c2ccccc2)ccc2ccccc21`, the inhibition in assay [1] turned out to be 18.8%. Besides, the outcome in assay [2] and in assay [3] was inactive. Moreover, the IC50 in assay [4] was above 100 µM.
For `C[n+]1c(/C=C/c2ccc(N)cc2)ccc2ccccc21`, the inhibition in assay [1] was 2.11%. Besides, the result in assay [2] was Active. Moreover, in assay [3], the outcome was inactive. Besides, the 50% inhibitory concentration (IC50) in assay [4] is above 100 µM.
As to `C[n+]1c(/C=C/c2cnccn2)ccc2ccccc21`, in assay [1], the inhibition amounted to 8.36%. Besides, the result in assay [2] was Active. Further, the result in assay [3] was inactive. The IC50 in assay [4] was above 100 µM.
`C[n+]1c(/C=C/c2ccc(F)cc2)ccc2ccccc21`: the inhibition in assay [1] worked out at 21.3%. The outcome in assay [3] was inactive. For the same molecule, the IC50 in assay [4] was above 100 µM.
The like results for `C[n+]1c(/C=C/c2ccc(Br)cc2)sc2ccccc21` were, in that order, -4.77%, “inactive” and above 100 µM.
`CN1CCN(c2ccc(/C=C/c3sc4ccccc4[n+]3C)cc2)CC1`: the result in assay [2] and in assay [3] was inactive. Moreover, in assay [4], the IC50 was above 100 µM.
For the molecule `C[n+]1c(/C=C/c2cc(Br)c(O)c(Br)c2)sc2ccccc21`, the result in assay [2] and in assay [3] was inactive. Also, the IC50 in assay [4] is above 100 µM.
Consider `COc1ccc(/C=C/c2ccc3ccccc3[n+]2C)cc1`, for which the inhibition in assay [1] was -9.62%. Also, the outcome in assay [2] and in assay [3] was inactive. In assay [4], the IC50 is above 100 µM.
For the molecule `CN(C)c1ccc(/C=C/c2ccc3ccccc3[n+]2C)cc1`, the outcome in assay [2] and in assay [3] was inactive. The IC50 in assay [4] is above 100 µM.
With `C[n+]1c(/C=C/c2ccc(F)cc2)sc2ccccc21`, the inhibition in assay [1] turned out to be 7.72%. Moreover, the outcome in assay [3] was inactive. The IC50 in assay [4] was above 100 µM.
In the case of `C[n+]1c(/C=C/c2cc(Br)c(O)c(Br)c2)ccc2ccccc21`, the outcome in assay [2] and in assay [3] was inactive.
Turning to `C[n+]1c(/C=C/c2ccc(N)cc2)sc2ccccc21`, in assay [1], the inhibition worked out at 14.5%. Moreover, the outcome in assay [3] was inactive. Also, in assay [4], the IC50 was above 100 µM.
As to `C[n+]1c(/C=C/c2ccncc2)sc2ccccc21`, the result in assay [2] and in assay [3] was inactive. In assay [4], the IC50 was above 100 µM.
In the case of `C[n+]1c(/C=C/c2ccc([N+](=O)[O-])cc2)ccc2ccccc21`, the result in assay [3] was inactive. The IC50 in assay [4] is above 100 µM.
The like results for `C[n+]1c(/C=C/c2ccc(Br)cc2)ccc2ccccc21` were, in that order, “inactive” and above 100 µM.

Broadly, the inhibition is the relative decrease from the control value, in per cent. In general, IC50 refers to the midpoint of a concentration-inhibition curve.
